Assay results from patent US20250213474A1, “COMPOSITIONS AND METHODS FOR METAL CONTAINING FORMULATIONS CAPABLE OF MODULATING IMMUNE RESPONSE” (The Regents of the University of Michigan, priority 2021, published 2025).

How the values were obtained:
NOOC1 tumor cells = assay: NOOC1 ICB-resistant squamous cell carcinoma model; assay type: in vivo, C57BL/6 mice; details: CDA dose 5 μg I.T. or 20 μg I.V., days 9, 12, 16, 20
Description: NOOC1 was maintained in the IMDM media (Gibco cat #12440053). To make 1L of growth media for NOOC1, 626 ml IMDM base was mixed with 313 ml F-12 nutrient mix (Gibco cat #11765054), 50 ml FBS (Hyclone cat #SH3039603), 10 ml Pen Strep (Thermo Fisher cat #15-140-122), 1.25 ml of 4 mg/ml insulin (Invitrogen cat #12585014), 200 μl of 200 μg/ml hydrocortisone (Sigma-Aldrich cat #H0888-1G), and 50 μl of 100 μg/ml EGF (EMD Millipore cat #01-107). For in vivo implantation, Matrigel (Thermo Fisher cat #CB-40230) was thawed overnight at 4° C. On the day of injection, NOOC1 was washed once with PBS and mixed with Matrigel to reach a density of 2×10^7 cells/ml. Each mouse was inoculated subcutaneously with 2×10^6 cells (100 μl). Tumor size and survival were monitored every 2 or 3 days as indicated above.
To further evaluate the potency of CMP, we performed head-to-head comparison studies between CMPCDA and other STING-activating formulations. C57BL/6 mice were inoculated at S.C. flank with 3×10^5 B16F10 tumors cells, and we administered three doses of CMPCDA on three-day intervals via either I.T. route when the average tumor volume reached 153±17 mm^3 (FIGS. 23A-23E) or via I.V. route when the average tumor volume reached 63±7 mm^3. (FIGS. 23F-23J)). […]

CT26 colon cancer cells [1] = assay: CT26 tumor model, I.V. administration of CMP; assay type: in vivo; details: free CDA 100 μg; CMPCDA 20 μg
Description: (FIG. 22A) CT26 tumor-bearing BALB/c mice were treated with CDA+ Mn^2+ or CMPCDA, I.V. on days 9, 12, and 15. […] (FIGS. 22D-22F) Tumor growth (FIGS. 22D-22E) and animal survival (FIG. 22F) were Monitored over time. (FIG. 22G) Survivors re-challenged with CT26 tumor cells on day 145 were monitored for tumor Growth and survival.
For CT26 murine tumor model, female BALB/c mice of age 6-8 weeks (Jackson Laboratories) were inoculated with 1.5×10^5 CT26 colon cancer cells subcutaneously on the right back flank. […] Tumor-bearing mice were randomly assigned to different treatment groups. Indicated drugs or formulations were administrated via indicated route at indicated time points. Tumor size and survival were monitored every 2-4 days. Tumor size was calculated based on equation: volume=length×width^2×0.5. Animals were euthanized when the tumor reached 1.5 cm in diameter or when animals became moribund with severe weight loss or un-healing ulceration.
To address this issue, we evaluated the therapeutic effect of CMP after I.V. administration. CT26 tumor-bearing BABL/c mice were treated I.V. on days 9, 12, and 15 with 20 μg CDA and 10 μg Mn^2+ either in CMPCDA or soluble form (FIG. 22A).

CT26 colon cancer cells [2] = assay: CT26 colon tumor model, metal ion-CDA combinations and coordination formulations; assay type: in vivo, Balb/c mice; design: concentration or dose not given beside the values; details: three doses intratumoral on day 9, 12, 15
Description: FIGS. 6A-6D: Enhanced STING activation and cancer therapy efficacy by Co^2+ and Mn^2+ in Vivo. (FIG. 6A) individual tumor growth curve after three doses of intratumor injection of the indicated formulation at day 9, 12, 15 after tumor inoculation. (FIG. 6B) Serum IFN-beta concentration 8 h after the 1st dose of the indicated formulation. (FIGS. 6C-6D) individual tumor growth (FIG. 6C) and survival (FIG. 6D) of the tumor bearing mice after treated with the indicated formulations.
FIGS. 7A-7E: Enhanced STING activation by Co^2+ and Mn^2+ led to improved antigen specific immune response after In vivo. (FIG. 7A) the percentage of AH1-specific CD8+ T cells among PBMC on day 16. (FIG. 7B) IFN-γ secreting cells counts per 5E4 PBMCs after stimulation with AH1 peptides at day 22. […]
All animals were cared for following federal, state, and local guidelines. […] Tumor size and survival were monitored every 2 or 3 days. Tumor size was calculated based on equation: volume=length×width^2×0.5. […] At day 17, the percentages of tumor antigen-specific CD8α+ T cells among PBMC were analyzed using the tetramer staining assay as described previously with peptide-MHC tetramer ([…] AH1) (the NIH Tetramer Core Facility, Atlanta, GA). […]

## Nc1ncnc2c1ncn2[C@@H]1O[C@@H]2COP(=O)(O)O[C@H]3[C@@H](O)[C@H](n4cnc5c(N)ncnc54)O[C@@H]3COP(=O)(O)O[C@H]2[C@H]1O [free CDA, cyclic-di-AMP]
NOOC1 tumor cells
  anti-tumor efficacy in NOOC1 model: refractory
CT26 colon cancer cells [1]
  control of tumor growth by I.V. therapy: could not control tumor growth
CT26 colon cancer cells [2]
  survival rate: 20%
